# Results from patent publication US20210122730A1, “GLUCOCORTICOID RECEPTOR MODULATORS” (ORIC Pharmaceuticals, Inc., priority 2017, published 2021).
# Biological target: T1, GR (Homo sapiens, UniProt P04150)
# T1 construct: expressed in transfected cells; host or cells: CHO-K1
# T1 sequence (P04150 1-777): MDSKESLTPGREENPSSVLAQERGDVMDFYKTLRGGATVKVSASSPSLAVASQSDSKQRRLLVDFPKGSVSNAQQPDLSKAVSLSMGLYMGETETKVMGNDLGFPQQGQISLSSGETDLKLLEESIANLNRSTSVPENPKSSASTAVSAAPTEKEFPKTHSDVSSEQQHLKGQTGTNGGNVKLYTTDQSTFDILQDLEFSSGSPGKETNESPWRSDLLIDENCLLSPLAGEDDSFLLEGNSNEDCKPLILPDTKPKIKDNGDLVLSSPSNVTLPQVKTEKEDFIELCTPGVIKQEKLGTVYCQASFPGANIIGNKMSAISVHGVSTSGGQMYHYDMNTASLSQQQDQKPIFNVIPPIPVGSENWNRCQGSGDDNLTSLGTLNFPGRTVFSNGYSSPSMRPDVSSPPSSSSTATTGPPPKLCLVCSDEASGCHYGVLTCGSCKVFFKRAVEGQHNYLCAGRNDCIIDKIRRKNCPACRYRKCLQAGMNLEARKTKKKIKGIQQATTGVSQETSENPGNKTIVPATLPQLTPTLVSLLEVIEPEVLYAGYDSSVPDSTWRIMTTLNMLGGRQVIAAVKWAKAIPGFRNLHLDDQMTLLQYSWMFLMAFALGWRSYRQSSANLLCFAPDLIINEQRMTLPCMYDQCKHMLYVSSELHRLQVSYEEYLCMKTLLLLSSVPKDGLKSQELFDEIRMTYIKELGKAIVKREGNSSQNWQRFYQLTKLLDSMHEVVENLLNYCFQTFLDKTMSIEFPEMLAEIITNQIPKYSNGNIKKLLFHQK
# Test: In Vitro GR Luciferase Reporter Assay (antagonist mode, CHO-K1-GR-MMTV-Luc reporter cells)
# Assay type: cell-based
# Conditions: antagonist assay with 10 nM Dexamethasone, 18-24 hours
# Procedure, shortened: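 CHO-K1-GR-MMTV-Luc cells in phenol red-free DMEM with 10% CSS, stimulated with 10 nM dexamethasone (final) and treated with 8-point 1:5 compound dilutions for about 18-24 h at 37° C. Luciferase measured by OneGlo luminescence; IC50 derived for inhibition of GR activity.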
row,IC50 [nM],Compound
1,≤ 100,"Cc1ccnc(C(=O)[C@]23Cc4cnn(-c5ccc(F)cc5)c4C=C2CC[C@H](S(=O)(=O)c2ccncc2)C3)c1 [Example 48, ((4aS,6S)-1-(4-fluorophenyl)-6-(pyridin-4-ylsulfonyl)-1,4,5,6,7,8-hexahydro-4aH-benzo[f]indazol-4a-yl)(4-methylpyridin-2-yl)methanone]"
2,≤ 100,"O=C(c1ccccn1)[C@]12Cc3cnn(-c4ccc(F)cc4)c3C=C1CC[C@H](S(=O)(=O)c1ccc(C(F)(F)F)cn1)C2 [Example 32, ((4aS,6S)-1-(4-fluorophenyl)-6-((5-(trifluoromethyl)pyridin-2-yl)sulfonyl)-1,4,5,6,7,8-hexahydro-4aH-benzo[f]indazol-4a-yl)(pyridin-2-yl)methanone]"
3,100 to 1000,"CN(c1cnn(C)c1)S(=O)(=O)[C@H]1CCC2=Cc3c(cnn3-c3ccc(F)cc3)C[C@]2(C(=O)c2cc(C(F)(F)F)ccn2)C1 [Example 101, (4aS,6S)-1-(4-fluorophenyl)-N-methyl-N-(1-methyl-1H-pyrazol-4-yl)-4a-(4-(trifluoromethyl)picolinoyl)-4,4a,5,6,7,8-hexahydro-1H-benzo[f]indazole-6-sulfonamide]"
4,≤ 100,"CN([C@H]1CCC2=Cc3c(cnn3-c3ccc(F)cc3)C[C@]2(C(=O)c2ccccn2)C1)S(=O)(=O)c1ccccc1 [Example 80, N-((4aS,6S)-1-(4-fluorophenyl)-4a-picolinoyl-4,4a,5,6,7,8-hexahydro-1H-benzo[f]indazol-6-yl)-N-methylbenzenesulfonamide]"

# Continued, molecule first:
row,Compound,IC50 [nM]
1,"CN([C@H]1CCC2=Cc3c(cnn3-c3ccc(F)cc3)C[C@]2(C(=O)c2ccc(C3CC3)cn2)C1)S(=O)(=O)c1cnn(C)n1 [Example 78, N-((4aS,6S)-4a-(5-cyclopropylpicolinoyl)-1-(4-fluorophenyl)-4,4a,5,6,7,8-hexahydro-1H-benzo[f]indazol-6-yl)-N,2-dimethyl-2H-1,2,3-triazole-4-sulfonamide]",≤ 100
2,"O=C(c1ccc(C2CC2)cn1)[C@]12Cc3cnn(-c4ccc(F)cc4)c3C=C1CC[C@H](S(=O)(=O)c1ccccn1)C2 [Example 57, (5-cyclopropylpyridin-2-yl)((4aS,6S)-1-(4-fluorophenyl)-6-(pyridin-2-ylsulfonyl)-1,4,5,6,7,8-hexahydro-4aH-benzo[f]indazol-4a-yl)methanone]",≤ 100
3,"O=C(c1ccc(C(F)(F)F)cn1)[C@]12Cc3cnn(-c4ccc(F)cc4)c3C=C1CC[C@H](S(=O)(=O)c1ccccn1)C2 [Example 58, ((4aS,6S)-1-(4-fluorophenyl)-6-(pyridin-2-ylsulfonyl)-1,4,5,6,7,8-hexahydro-4aH-benzo[f]indazol-4a-yl)(5-(trifluoromethyl)pyridin-2-yl)methanone]",≤ 100
4,"CC(C)(C)CS(=O)(=O)[C@H]1CCC2=Cc3c(cnn3-c3ccc(F)cc3)C[C@]2(C(=O)c2ccccn2)C1 [Example 49, ((4aS,6S)-1-(4-fluorophenyl)-6-(neopentylsulfonyl)-1,4,5,6,7,8-hexahydro-4aH-benzo[f]indazol-4a-yl)(pyridin-2-yl)methanone]",≤ 100

# Same assay, conditions: antagonist mode, 10 nM Dexamethasone
row,IC50 [nM],Compound
1,≤ 100,"CC(C)N(C(=O)C1CCCC1)[C@H]1CCC2=Cc3c(cnn3-c3ccc(F)cc3)C[C@]2(C(=O)c2ncc(C(F)(F)F)s2)C1 [Example 281, N-((4aS,6S)-1-(4-fluorophenyl)-4a-(5-(trifluoromethyl)thiazole-2-carbonyl)-4,4a,5,6,7,8-hexahydro-1H-benzo[f]indazol-6-yl)-N-isopropylcyclopentanecarbox-amide]"
2,≤ 100,"C[C@@]1(S(=O)(=O)c2ccccc2)CCC2=Cc3c(cnn3-c3ccc(F)cc3)C[C@]2(C(=O)c2ccccn2)C1 (single isomer, unassigned) [Example 116, ((4aS,6R)-1-(4-Fluorophenyl)-6-methyl-6-(phenylsulfonyl)-1,4,5,6,7,8-hexahydro-4aH-benzo[f]indazol-4a-yl)(pyridin-2-yl)methanone or ((4aS,6S)-1-(4-fluorophenyl)-6-methyl-6-(phenylsulfonyl)-1,4,5,6,7,8-hexahydro-4aH-benzo[f]indazol-4a-yl)(pyridin-2-yl)methanone]"
3,≤ 100,"O=C(c1cc(Cl)ccn1)[C@]12Cc3cnn(-c4ccc(F)cc4)c3C=C1CC[C@H](N(C1CC(F)(F)C1)S(=O)(=O)c1ccc(Cl)nc1)C2 [Example 370, 6-chloro-N-((4aS,6S)-4a-(4-chloropicolinoyl)-1-(4-fluorophenyl)-4,4a,5,6,7,8-hexahydro-1H-benzo[f]indazol-6-yl)-N-(3,3-difluorocyclobutyl)pyridine-3-sulfonamide]"
4,≤ 100,"Cn1cc(S(=O)(=O)N(CC2CC2)[C@H]2CCC3=Cc4c(cnn4-c4ccc(F)cc4)C[C@]3(C(=O)c3ncc(C(F)(F)F)s3)C2)cn1 [Example 181, N-(cyclopropylmethyl)-N-((4aS,6S)-1-(4-fluorophenyl)-4a-(5-(trifluoromethyl)thiazole-2-carbonyl)-4,4a,5,6,7,8-hexahydro-1H-benzo[f]indazol-6-yl)-1-methyl-1H-pyrazole-4-sulfonamide]"
5,≤ 100,"O=C(c1ncc(C(F)(F)F)s1)[C@]12Cc3cnn(-c4ccc(F)cc4)c3C=C1CC[C@H](N(C1CC1)S(=O)(=O)c1ccc(Cl)nc1)C2 [Example 271, 6-chloro-N-cyclopropyl-N-((4aS,6S)-1-(4-fluorophenyl)-4a-(5-(trifluoromethyl)thiazole-2-carbonyl)-4,4a,5,6,7,8-hexahydro-1H-benzo[f]indazol-6-yl)pyridine-3-sulfonamide]"
6,≤ 100,"Cn1cc(S(=O)(=O)N(C2COC2)[C@H]2CCC3=Cc4c(cnn4-c4ccc(F)cc4)C[C@]3(C(=O)c3cc(C(F)(F)F)ccn3)C2)nn1 [Example 220, N-((4aS,6S)-1-(4-fluorophenyl)-4a-(4-(trifluoromethyl)picolinoyl)-4,4a,5,6,7,8-hexahydro-1H-benzo[f]indazol-6-yl)-1-methyl-N-(oxetan-3-yl)-1H-1,2,3-triazole-4-sulfonamide]"
7,≤ 100,"Cn1cc(S(=O)(=O)N(C2CC2)[C@H]2CCC3=Cc4c(cnn4-c4ccc(F)cc4)C[C@]3(C(=O)c3nccs3)C2)cn1 [Example 168, N-cyclopropyl-N-((4aS,6S)-1-(4-fluorophenyl)-4a-(thiazole-2-carbonyl)-4,4a,5,6,7,8-hexahydro-1H-benzo[f]indazol-6-yl)-1-methyl-1H-pyrazole-4-sulfonamide]"
8,≤ 100,"Cn1cc(S(=O)(=O)CC2CCC3=Cc4c(cnn4-c4ccc(F)cc4)C[C@]3(C(=O)c3ccc(C(F)(F)F)cn3)C2)cn1 (stereo partly drawn) [Example 340, ((4aR)-1-(4-fluorophenyl)-6-(((1-methyl-1H-pyrazol-4-yl)sulfonyl)methyl)-1,4,5,6,7,8-hexahydro-4aH-benzo[f]indazol-4a-yl)(5-(trifluoromethyl)pyridin-2-yl)methanone]"

# Second part, the molecule before the results:
row,Compound,IC50 [nM]
1,"Cn1cnc(S(=O)(=O)N(CCF)[C@H]2CCC3=Cc4c(cnn4-c4ccc(F)cc4)C[C@]3(C(=O)c3cc(F)ccn3)C2)n1 [Example 392, N-(2-fluoroethyl)-N-((4aS,6S)-1-(4-fluorophenyl)-4a-(4-fluoropicolinoyl)-4,4a,5,6,7,8-hexahydro-1H-benzo[f]indazol-6-yl)-1-methyl-1H-1,2,4-triazole-3-sulfonamide]",≤ 100
2,"CC(C)N([C@H]1CCC2=Cc3c(cnn3-c3ccc(F)cc3)C[C@]2(C(=O)c2ncc(C3CC3)s2)C1)S(=O)(=O)c1ccn(C)n1 [Example 185, N-((4aS,6S)-4a-(5-cyclopropylthiazole-2-carbonyl)-1-(4-fluorophenyl)-4,4a,5,6,7,8-hexahydro-1H-benzo[f]indazol-6-yl)-N-isopropyl-1-methyl-1H-pyrazole-3-sulfonamide]",≤ 100
3,"O=C(c1ncc(C(F)(F)F)s1)[C@]12Cc3cnn(-c4ccc(F)cc4)c3C=C1CC[C@H](N(CC(F)F)S(=O)(=O)c1ccc(F)cc1)C2 [Example 405, N-(2,2-difluoroethyl)-4-fluoro-N-((4aS,6S)-1-(4-fluorophenyl)-4a-(5-(trifluoromethyl)thiazole-2-carbonyl)-4,4a,5,6,7,8-hexahydro-1H-benzo[f]indazol-6-yl)benzenesulfonamide]",≤ 100
4,"Cn1cc(S(=O)(=O)N(C2CC2)[C@H]2CCC3=Cc4c(cnn4-c4ccc(F)cc4)C[C@]3(C(=O)c3ccc(C4CC4)cn3)C2)cn1 [Example 141, N-cyclopropyl-N-((4aS,6S)-4a-(5-cyclopropylpicolinoyl)-1-(4-fluorophenyl)-4,4a,5,6,7,8-hexahydro-1H-benzo[f]indazol-6-yl)-1-methyl-1H-pyrazole-4-sulfonamide]",≤ 100
5,"Cn1ncc(S(=O)(=O)N(C2COC2)[C@H]2CCC3=Cc4c(cnn4-c4ccc(F)cc4)C[C@]3(C(=O)c3cc(C(F)(F)F)ccn3)C2)n1 [Example 239, N-((4aS,6S)-1-(4-fluorophenyl)-4a-(4-(trifluoromethyl)picolinoyl)-4,4a,5,6,7,8-hexahydro-1H-benzo[f]indazol-6-yl)-2-methyl-N-(oxetan-3-yl)-2H-1,2,3-triazole-4-sulfonamide]",≤ 100
